The subject of assay [1] is Candida albicans. Description: Antifungal activity against Candida albicans ATCC 90028 at 1 mg/mL after 24 hrs by spectrophotometry. The format is functional.
The subject of assay [2] is Staphylococcus aureus. The assay is described as follows: Antibacterial activity against Staphylococcus aureus ATCC 6538P at 1 mg/mL after 24 hrs by spectrophotometry. It counts as functional.

Take `CC(C)=CC[C@H](O)[C@@H](C)[C@H]1[C@@H](O)C[C@@]2(C)[C@@H]3CC[C@H]4[C@](C)(CO[C@@H]5O[C@H](CO)[C@@H](O)[C@H](O)[C@H]5O)[C@@H](O[C@@H]5OC[C@H](O)[C@H](O)[C@H]5O)CC[C@@]45C[C@@]35CC[C@]12C` [THALICOSIDE A2]: the figures for the Activity in assay [1] and in assay [2] were 78.7% and 45.7%, respectively.
